Starred links: 1 amine or outer side, 2 acyl side, 3 side chain; linkers in the order of their positions; H or OH if unused. Positions of bridges follow the written chain, without caps; N, C: chain ends. Non-standard residues stand in square brackets, D forms with d. Residues, ends and D or L forms follow the SMILES beside them. Groups on a side chain read outwards from the residue. *: point of attachment. Trp(1-Me) = Cn1cc(C[C@H](N)C(=O)O)c2ccccc21; C18 diacid = O=C(O)CCCCCCCCCCCCCCCCC(=O)*; γGlu = O=C(O)[C@H](CCC(=O)[*:2])N[*:1]; Sar = CNCC(=O)O
How the values were obtained:
[1] = Solubility test at 10 mg/mL (visual inspection and light scattering); format: physicochemical; details: for Solubility, Condition 1: Acetate pH 4; for Solubility, Condition 2: Acetate pH 5; for Solubility, Condition 3: Phosphate pH 6; for Solubility, Condition 4: Phosphate pH 7; for Solubility, Condition 5: Phosphate pH 7.5
[2] = system: classical complement pathway; experiment: In vitro haemolysis assay (inhibition of classical complement pathway); format: cell-based, human; details: human serum, sensitized sheep red blood cells; Table 3, given as upper bounds; read-out: IC50, inhibition of hemolysis
In short: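 Compound dilutions preincubated 15 min at room temperature with diluted human serum (titrated per batch for 70-90% maximal haemolysis), then antibody-sensitized sheep RBC (10^7/well) added for 30 min at 37 °C in Tris/casein buffer, pH 7.4. Stopped with EDTA; haemolysis read at 405 nm; IC50 by 4PL fit.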

CC[C@H](C)[C@@H]1NC(=O)[C@@H](NC(=O)[C@H](Cc2ccc(O)cc2)NC(=O)[C@H](CCC(=O)O)NC(=O)[C@H](CO)NC(C)=O)CSSC[C@@H](C(=O)N(C)CC(=O)N[C@@H](CCC(=O)O)C(=O)NCC(=O)N[C@@H](CCC(=O)O)C(=O)N[C@@H](CCCCNC(=O)CC[C@H](NC(=O)CNC(=O)CC[C@H](NC(=O)CCCCCCCCCCCCCCCCC(=O)O)C(=O)O)C(=O)O)C(N)=O)NC(=O)[C@H](CCCNC(=N)N)NC(=O)[C@H](Cc2c[nH]cn2)NC(=O)[C@H](CCC(=O)O)NC(=O)CNC(=O)[C@H](Cc2c[nH]c3ccccc23)NC(=O)[C@H](CC(=O)O)NC(=O)[C@H](CCC(N)=O)NC(=O)[C@H](Cc2cn(C)c3ccccc23)NC1=O [Compound 114] (Ac-SEYCI[Trp(1-Me)]QDWGEHRC[Sar]EGEK([γGlu-Gly-γGlu-C18 diacid])-NH2; disulfide 4-14)
Solubility, Condition 1 [1]: + (“+” denotes solubility at the given condition, as determined by UV absorbance being less than 0.1 AU at 340 nm and the sample being clear when manually inspected)
Solubility, Condition 2 [1]: + (“+” denotes solubility at the given condition, as determined by UV absorbance being less than 0.1 AU at 340 nm and the sample being clear when manually inspected)
Solubility, Condition 3 [1]: + (“+” denotes solubility at the given condition, as determined by UV absorbance being less than 0.1 AU at 340 nm and the sample being clear when manually inspected)
Solubility, Condition 4 [1]: + (“+” denotes solubility at the given condition, as determined by UV absorbance being less than 0.1 AU at 340 nm and the sample being clear when manually inspected)
Solubility, Condition 5 [1]: + (“+” denotes solubility at the given condition, as determined by UV absorbance being less than 0.1 AU at 340 nm and the sample being clear when manually inspected)
IC50 [2]: < 0.5 µM

CC[C@H](C)[C@@H]1NC(=O)[C@@H](NC(=O)[C@H](Cc2ccc(O)cc2)NC(=O)[C@H](CCC(=O)O)NC(=O)[C@H](CO)NC(C)=O)CSSC[C@@H](C(=O)N(C)CC(=O)N[C@@H](CCC(=O)O)C(=O)NCC(=O)N[C@@H](CCCCN)C(=O)N[C@@H](CCCCNC(=O)CC[C@H](NC(=O)CNC(=O)CC[C@H](NC(=O)CCCCCCCCCCCCCCCCC(=O)O)C(=O)O)C(=O)O)C(N)=O)NC(=O)[C@H](CCCNC(=N)N)NC(=O)[C@H](Cc2c[nH]cn2)NC(=O)[C@H](CCC(=O)O)NC(=O)CNC(=O)[C@H](Cc2c[nH]c3ccccc23)NC(=O)[C@H](CC(=O)O)NC(=O)[C@H](CCC(N)=O)NC(=O)[C@H](Cc2cn(C)c3ccccc23)NC1=O [Compound 115] (Ac-SEYCI[Trp(1-Me)]QDWGEHRC[Sar]EGKK([γGlu-Gly-γGlu-C18 diacid])-NH2; disulfide 4-14)
Solubility, Condition 1 [1]: − (“−” denotes lack of solubility at the given condition, as UV absorbance at 340 nm exceeds 0.1 AU and/or it is visibly turbid or contains particles)
Solubility, Condition 2 [1]: − (“−” denotes lack of solubility at the given condition, as UV absorbance at 340 nm exceeds 0.1 AU and/or it is visibly turbid or contains particles)
Solubility, Condition 3 [1]: + (“+” denotes solubility at the given condition, as determined by UV absorbance being less than 0.1 AU at 340 nm and the sample being clear when manually inspected)
Solubility, Condition 4 [1]: + (“+” denotes solubility at the given condition, as determined by UV absorbance being less than 0.1 AU at 340 nm and the sample being clear when manually inspected)
Solubility, Condition 5 [1]: + (“+” denotes solubility at the given condition, as determined by UV absorbance being less than 0.1 AU at 340 nm and the sample being clear when manually inspected)
IC50 [2]: < 0.25 µM

Source: patent publication US11965039B2, “Compstatin analogues and their medical uses” (priority 2018, dated 2024)
